From patent publication US20090111801A1, “SUBSTITUTED PYRAZINONE DERIVATIVES FOR USE AS A MEDICINE” (Janssen Pharmaceutica N.V., priority 2006, published 2009)

How the values were obtained:
5HT-Transporter = biological target: T1, 5HT-Transporter (Homo sapiens, UniProt P31645); assay: Binding experiment for the 5HT-transporter ([3H]paroxetine, human platelet membranes); conditions: [3H]paroxetine 0.5 nM; for IC50: read-out: h-5HTT pIC50 (converted)
T1 construct: Human platelet membranes (Oceanix Biosciences Corporation, Hanover, Md., USA) were thawed; tissue Oceanix Biosciences Corporation, Hanover, Md., USA; host or cells: human platelet membranes
In short: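 Filter-bound radioactivity from human platelet membranes incubated with [3H]paroxetine and test compound (buffer Tris-HCl 50 mM, 120 mM NaCl, 5 mM KCl) was counted.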

hα2A receptor = biological target: T2, hα2A receptor (Homo sapiens, UniProt P08913); assay: Radioligand binding experiment for α2A-adrenoceptor ([3H]raulwolscine, CHO cell membranes); conditions: [3H]raulwolscine binding; for IC50: read-out: h-α2A pIC50 (converted)
T2 construct: expressed in transfected cells; host or cells: CHO cells, stably transfected; membrane preparation
T2 sequence (P08913 1-465): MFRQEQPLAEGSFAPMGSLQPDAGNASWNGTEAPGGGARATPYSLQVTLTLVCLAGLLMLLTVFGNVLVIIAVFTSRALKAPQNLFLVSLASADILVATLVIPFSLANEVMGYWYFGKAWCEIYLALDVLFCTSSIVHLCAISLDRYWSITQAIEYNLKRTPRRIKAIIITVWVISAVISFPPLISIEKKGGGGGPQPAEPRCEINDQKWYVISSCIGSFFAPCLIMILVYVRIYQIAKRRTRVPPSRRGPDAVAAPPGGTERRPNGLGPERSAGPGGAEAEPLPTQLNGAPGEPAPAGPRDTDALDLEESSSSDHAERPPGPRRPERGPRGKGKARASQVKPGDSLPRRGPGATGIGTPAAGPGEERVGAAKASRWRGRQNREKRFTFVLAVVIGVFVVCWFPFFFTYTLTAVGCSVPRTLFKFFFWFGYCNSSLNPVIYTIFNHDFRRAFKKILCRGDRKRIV

hα2C receptor = biological target: T3, hα2C receptor (Homo sapiens, UniProt P18825); assay: Radioligand binding experiment for α2C-adrenoceptor ([3H]raulwolscine, CHO cell membranes); conditions: [3H]raulwolscine binding; for IC50: read-out: h-α2C pIC50 (converted)
T3 construct: expressed in transfected cells; host or cells: CHO cells, stably transfected; membrane preparation
T3 sequence (P18825 1-462): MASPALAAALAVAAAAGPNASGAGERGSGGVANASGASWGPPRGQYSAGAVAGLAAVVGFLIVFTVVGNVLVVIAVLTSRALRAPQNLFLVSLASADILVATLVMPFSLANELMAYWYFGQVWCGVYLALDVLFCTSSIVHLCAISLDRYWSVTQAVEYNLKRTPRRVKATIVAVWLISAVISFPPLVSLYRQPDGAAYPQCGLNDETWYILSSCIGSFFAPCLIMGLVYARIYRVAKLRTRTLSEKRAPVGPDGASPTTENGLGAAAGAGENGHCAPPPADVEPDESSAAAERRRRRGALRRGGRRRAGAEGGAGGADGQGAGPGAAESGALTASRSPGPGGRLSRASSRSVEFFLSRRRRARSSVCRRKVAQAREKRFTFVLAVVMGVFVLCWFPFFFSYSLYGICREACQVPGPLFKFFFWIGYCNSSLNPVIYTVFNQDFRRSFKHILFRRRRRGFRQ

T1 sequence (P31645 whole entry): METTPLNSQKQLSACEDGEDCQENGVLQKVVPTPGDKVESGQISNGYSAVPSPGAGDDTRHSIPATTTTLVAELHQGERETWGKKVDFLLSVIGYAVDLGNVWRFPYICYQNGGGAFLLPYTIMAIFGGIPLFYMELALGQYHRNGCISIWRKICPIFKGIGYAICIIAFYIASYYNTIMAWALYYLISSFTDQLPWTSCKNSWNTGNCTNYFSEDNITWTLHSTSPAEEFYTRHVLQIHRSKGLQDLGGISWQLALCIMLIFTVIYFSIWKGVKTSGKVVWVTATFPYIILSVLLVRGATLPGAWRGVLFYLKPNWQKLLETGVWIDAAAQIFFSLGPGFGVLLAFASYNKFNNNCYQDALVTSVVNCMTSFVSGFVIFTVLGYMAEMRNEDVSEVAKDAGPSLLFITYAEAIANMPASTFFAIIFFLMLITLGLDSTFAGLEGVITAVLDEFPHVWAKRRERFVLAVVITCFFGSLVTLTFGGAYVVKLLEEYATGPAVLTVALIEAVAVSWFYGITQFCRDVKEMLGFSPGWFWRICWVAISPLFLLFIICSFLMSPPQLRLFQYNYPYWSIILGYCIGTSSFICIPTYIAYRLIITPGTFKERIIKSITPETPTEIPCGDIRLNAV

| SMILES | IC50 (5HT-Transporter) | IC50 (hα2A receptor) | IC50 (hα2C receptor) | h-5HTT pIC50 (5HT-Transporter) | h-α2A pIC50 (hα2A receptor) | h-α2C pIC50 (hα2C receptor) |
| --- | --- | --- | --- | --- | --- | --- |
| CCCNC(=O)NCc1ccc(Cn2ccnc(NC3CCN(C/C(C)=C/c4ccccc4)CC3)c2=O)cc1 [1-115] | 0.794 µM | 0.251 µM | 0.0794 µM |  |  |  |
| C/C(=C\c1ccccc1)CN1CCC(Nc2nccn(CCCN(C)C(=O)OC(C)(C)C)c2=O)CC1 [1-92] | 1.26 µM | 0.1 µM | 0.00631 µM |  |  |  |
| COC(=O)CCCCn1ccnc(NC2CCN(C/C(C)=C/c3ccccc3)CC2)c1=O [3-8] | 0.794 µM | 0.0794 µM | 0.0158 µM |  |  |  |
| C/C(=C\c1ccccc1)CN1CCC(Nc2nccn(CC(=O)Nc3ccccc3)c2=O)CC1 [1-40] | 1 µM | 0.0501 µM | 0.00316 µM |  |  |  |
| C/C(=C\c1ccccc1)CN1CCC(Nc2nccn(-c3cccc(N4CCOCC4)c3)c2=O)CC1 [2-42] | 0.794 µM | 0.00794 µM | 0.00316 µM |  |  |  |
| CCN(Cc1ccncc1)C(=O)Cn1ccnc(NC2CCN(C/C(C)=C/c3ccccc3)CC2)c1=O [1-142] | 1 µM | 0.158 µM | 0.00316 µM |  |  |  |
| C/C(=C\c1ccccc1)CN1CCC(Nc2nccn(-c3ccc(CNC(=O)c4ccno4)cc3)c2=O)CC1 [1-153] |  |  |  | 6.1 | 6.9 | 8.9 |
| C/C(=C\c1ccccc1)CN1CCC(Nc2nccn(CCCN(CC(=O)c3ccccc3)Cc3ccccc3)c2=O)CC1 [1-90] | 0.631 µM | 0.126 µM | 0.002 µM |  |  |  |
| C/C(=C\c1ccccc1)CN1CCC(Nc2nccn(CCCNC(=O)Nc3ccccc3)c2=O)CC1 [1-119] | 0.158 µM | 0.158 µM | 0.00501 µM |  |  |  |
| C/C(=C\c1ccccc1)CN1CCC(Nc2nccn(CC(=O)NCC3CCCO3)c2=O)CC1 (stereo not drawn) [1-144] | 3.16 µM | 0.158 µM | 0.00631 µM |  |  |  |
| C/C(=C\c1ccccc1)CN1CCC(Nc2nccn(Cc3ccc(CNC(=O)NCc4ccccc4)cc3)c2=O)CC1 [1-124] | 0.501 µM | 0.251 µM | 0.0631 µM |  |  |  |
| C/C(=C\c1ccccc1)CN1CCC(Nc2nccn(-c3ccc(CN4CCOCC4)cc3)c2=O)CC1 [2-44] | 2 µM | 0.0501 µM | 0.00631 µM |  |  |  |
| C/C(=C\c1ccccc1)CN1CCC(Nc2nccn(CCCN(C)C(=O)Nc3ccccc3)c2=O)CC1 [1-121] | 0.794 µM | 0.158 µM | 0.00631 µM |  |  |  |
| C/C(=C\c1ccccc1)CN1CCC(Nc2nccn(Cc3ccc(CNS(=O)(=O)/C=C/c4ccccc4)cc3)c2=O)CC1 [1-167] | 0.631 µM | 0.2 µM | 0.0398 µM |  |  |  |
| C/C(=C\c1ccccc1)CN1CCC(Nc2nccn(CC(=O)NCC(c3ccccc3)c3ccccc3)c2=O)CC1 [1-68] | 0.794 µM | 0.158 µM | 0.0126 µM |  |  |  |
| C/C(=C\c1ccccc1)CN1CCC(Nc2nccn(CC(=O)N(CCO)Cc3ccccc3)c2=O)CC1 [1-67] | 1 µM | 0.1 µM | 0.00316 µM |  |  |  |
| C/C(=C\c1ccccc1)CN1CCC(Nc2nccn(-c3ccc(CNCCN4CCCC4)cc3)c2=O)CC1 [1-131] | 0.158 µM | 0.0251 µM | 0.00316 µM |  |  |  |
| C/C(=C\c1ccccc1)CN1CCC(Nc2nccn(CC(=O)NCc3ccccc3)c2=O)CC1 [1-48] | 2 µM | 0.126 µM | 0.00501 µM |  |  |  |
| COCCN(C)Cc1ccc(-n2ccnc(NC3CCN(C/C(C)=C/c4ccccc4)CC3)c2=O)cc1 [1-26] |  |  |  | 5.8 | 7.2 | 8.7 |
| CSc1ccc(-n2ccnc(NC3CCN(C/C(C)=C/c4ccccc4)CC3)c2=O)cc1 [4-2] | 0.158 µM | 0.0126 µM | 0.00631 µM |  |  |  |
| C/C(=C\c1ccccc1)CN1CCC(Nc2nccn(CC(=O)N(CCN3CCCC3)CC3CCCCC3)c2=O)CC1 [1-134] | 0.501 µM | 0.0126 µM | 0.00158 µM |  |  |  |
| COCCCNC(=O)Cn1ccnc(NC2CCN(C/C(C)=C/c3ccccc3)CC2)c1=O [1-23] | 2.51 µM | 0.2 µM | 0.00631 µM |  |  |  |
| COC(=O)c1ccc(-n2ccnc(NC3CCN(C/C(C)=C/c4ccccc4)CC3)c2=O)cc1 [3-12] | 0.501 µM | 0.0316 µM | 0.0158 µM |  |  |  |
| C/C(=C\c1ccccc1)CN1CCC(Nc2nccn(Cc3ccc(CNC(=O)c4ccccc4)cc3)c2=O)CC1 [1-73] | 0.316 µM | 0.158 µM | 0.0316 µM |  |  |  |
| C/C(=C\c1ccccc1)CN1CCC(Nc2nccn(CC(=O)NCc3cccnc3)c2=O)CC1 [1-141] | 1.58 µM | 0.1 µM | 0.00631 µM |  |  |  |
| CSCCn1ccnc(N2CCN(C/C(C)=C/c3ccccc3)CC2)c1=O [11-1] | 6.31 µM | 0.316 µM | 0.0794 µM |  |  |  |
| COCCOCCn1ccnc(NC2CCN(C/C(C)=C/c3ccccc3)CC2)c1=O [3-21] | 3.98 µM | 0.316 µM | 0.0398 µM |  |  |  |
| COC(=O)CN(C)Cc1ccc(-n2ccnc(NC3CCN(C/C(C)=C/c4ccccc4)CC3)c2=O)cc1 [1-99] | 1 µM | 0.0794 µM | 0.00501 µM |  |  |  |

Now from value to molecule:

| IC50 (5HT-Transporter) | IC50 (hα2A receptor) | IC50 (hα2C receptor) | h-5HTT pIC50 (5HT-Transporter) | h-α2A pIC50 (hα2A receptor) | h-α2C pIC50 (hα2C receptor) | SMILES |
| --- | --- | --- | --- | --- | --- | --- |
| 0.316 µM | 1 µM | 0.2 µM |  |  |  | C/C(=C\c1ccccc1)CN1CCC(Nc2nc(Cl)c(-c3cccc(Br)c3)[nH]c2=O)CC1 [17-1] |
| 1.26 µM | 0.126 µM | 0.0251 µM |  |  |  | C/C(=C\c1ccccc1)CN1CCC(Nc2nccn(Cc3ccco3)c2=O)CC1 [6-2] |
| 3.98 µM | 0.316 µM | 0.0501 µM |  |  |  | C/C(=C\c1ccccc1)CN1CCN(c2nccn(CC(=O)c3ccccc3)c2=O)CC1 [12-5] |
| 0.2 µM | 0.0501 µM | 0.0126 µM |  |  |  | C/C(=C\c1ccccc1)CN1CCC(Nc2nccn(Cc3ccccc3Br)c2=O)CC1 [5-14] |
| 1.26 µM | 0.158 µM | 0.0794 µM |  |  |  | C/C(=C\c1ccccc1)CN1CCN(c2nccn(Cc3ccc(CNC(=O)OC(C)(C)C)cc3)c2=O)CC1 [8-4] |
| 0.794 µM | 0.794 µM | 0.2 µM |  |  |  | O=c1c(NC2CCN(C/C=C/c3ccccc3)CC2)nccn1CCc1ccccc1 [16-14] |
| 1.26 µM | 0.0316 µM | 0.00501 µM |  |  |  | C/C(=C\c1ccccc1)CN1CCC(Nc2nccn(-c3ccccc3)c2=O)CC1 [5-1] |
| 3.98 µM | 0.2 µM | 0.0316 µM |  |  |  | C/C(=C\c1ccccc1)CN1CCC(Nc2nccn(Cc3ccccn3)c2=O)CC1 [6-13] |
| 0.251 µM | 0.1 µM | 0.0316 µM |  |  |  | CCCCCn1ccnc(NC2CCN(C/C(C)=C/c3ccccc3)CC2)c1=O [7-5] |
| 0.398 µM | 0.0398 µM | 0.0126 µM |  |  |  | CCc1ccc(-n2ccnc(NC3CCN(C/C(C)=C/c4ccccc4)CC3)c2=O)cc1 [5-4] |
| 0.2 µM | 0.1 µM | 0.02 µM |  |  |  | C/C(=C\c1ccccc1)CN1CCC(Nc2nccn(Cc3ccccc3-c3ccccc3)c2=O)CC1 [5-31] |
| 1.58 µM | 0.2 µM | 0.0501 µM |  |  |  | C/C(=C\c1ccccc1)CN1CCC(Nc2nccn(CC3CCCCC3)c2=O)CC1 [7-6] |
| 7.94 µM | 1 µM | 0.2 µM |  |  |  | C/C(=C\c1ccccc1)CN1CCN(c2nccn(CCN3CCOCC3)c2=O)CC1 [9-2] |
| 0.316 µM | 0.0501 µM | 0.00794 µM |  |  |  | C/C(=C\c1ccccc1)CN1CCC(Nc2nccn(-c3nccs3)c2=O)CC1 [6-5] |
| 5.01 µM | 1.58 µM | 0.316 µM |  |  |  | O=c1c(NC2CCN(C/C=C/c3ccccc3)CC2)nccn1CC1CCCCO1 (stereo not drawn) [16-19] |
| 0.631 µM | 0.0251 µM | 0.01 µM |  |  |  | CC(=O)c1ccc(-n2ccnc(NC3CCN(C/C(C)=C/c4ccccc4)CC3)c2=O)cc1 [5-7] |
| 3.16 µM | 0.0631 µM | 0.0631 µM |  |  |  | C/C(=C\c1ccccc1)CN1CCN(c2nccn(Cc3ccccc3)c2=O)CC1 [12-1] |
| > 10 µM | 0.126 µM | 0.0126 µM |  |  |  | C/C(=C\c1ccccc1)CN1CCC(Nc2nccn(CC(=O)C(C)(C)C)c2=O)CC1 [7-8] |
| 0.501 µM | 0.126 µM | 0.0501 µM |  |  |  | C/C(=C\c1ccccc1)CN1CCC(Nc2nccn(Cc3ccc(Br)cc3)c2=O)CC1 [5-16] |
| > 10 µM | 1.58 µM | 0.158 µM |  |  |  | CN(C)CCn1ccnc(NC2CCN(C/C=C/c3ccccc3)CC2)c1=O [16-1] |
